One data set relates to A549 lung cancer cells. Description: High-throughput quantification of cytosolic delivery of qRAS-labeled protein on a plate reader. The format is cell-based. As to conditions: cells pretreated with 50 μM NEM for 30 min, then JetPEI and OVA^qRAS. The method, then: A549 cancer cells were seeded into 96-well black plate at a density of 10,000 cells per well and incubated for 24 hr. The polymer solution (100 μg/mL) and qRAS-labeled protein (OVA^qRAS or IgG^qRAS, 25 μg/mL) were co-incubated with cells for 40 min at 37° C. The cells were washed twice with PBS (pH 7.4) and cultured in complete culture medium. The fluorescence of TMR and Cy5 were measured on a Tecan fluorescent plate reader at different times. At 24 hr, 5 mM DTT was added to cleave the intracellular disulphide bond and completely release the TMR signal. The excitation and emission settings: TMR: Ex: 545 nm with bandwidth 9 nm, Em: 595 nm with bandwidth 20 nm; Cy5: Ex: 640 nm with bandwidth 9 nm, Em: 690 nm with bandwidth 20 nm.
The activation percentage (%) of OVA^qRAS was calculated using the equation described below:
Activation (%)=(FTMR−F0)/(FTMR,DTT−F0)*100
where FTMR is the fluorescence intensity of TMR at different times, FTMR,DTT is the fluorescence intensity of TMR after the addition of DTT at 24 hr, and F0 is the background of TMR fluorescence.
For the N-ethylmaleimide (NEM) blocking experiments, the same procedures were used except that the cells were pretreated with 50 μM NEM for 30 min prior to the treatment with polymer and OVA^qRAS.

Data set [1] can be described thus: Fluorescence emission as a function of pH in PBS. The format is physicochemical. As to conditions: pH 4.0 to 8.0, PBS, 6 hours. The method, then:
Samples were excited at 390 nm.
FIG. 9 show the normalized fluorescence emission ratio of OVA^qRAS in PBS at different pH. OVA^qRAS (0.5 mg/mL) was incubated in PBS with different pH for 6 hours. The fluorescence emission spectra of TMR and Cy5 were recorded using a Hitachi fluorometer with excitation wavelength at 550 nm and 640 nm, respectively.

Consider `CCN1C(=O)C=CC1=O` [N-ethylmaleimide], for which, in the data set with A549 lung cancer cells, the “fluorescence signals of OVA^qRAS after NEM pretreatment” value was “significant suppression of fluorescence signals”.

B1: OVA^qRAS: Ovalbumin labeled by qRAS (conjugate, UniProt P01012 2-386, looked up)
Ovalbumin: GSIGAASMEFCFDVFKELKVHHANENIFYCPIAIMSALAMVYLGAKDSTRTQINKVVRFDKLPGFGDSIEAQCGTSVNVHSSLRDILNQITKPNDVYSFSLASRLYAEERYPILPEYLQCVKELYRGGLEPINFQTAADQARELINSWVESQTNGIIRNVLQPSSVDSQTAMVLVNAIVFKGLWEKAFKDEDTQAMPFRVTEQESKPVQMMYQIGLFRVASMASEKMKILELPFASGTMSMLVLLPDEVSGLEQLESIINFEKLTEWTSSNVMEERKIKVYLPRMKMEEKYNLTSVLMAMGITDVFSSSANLSGISSAESLKISQAVHAAHAEINEAGREVVGSAEAGVDAASVSEEFRADHPFLFCIKHIATNAVLFFGRCVSP
modifications: qRAS label
On to B1, for which the “TMR/Cy5 ratio across pH range” value in data set [1] was “remained constant”.

(Values after patent US20210333263A1, “REDOX ACTIVATABLE FLUORESCENT SENSORS” (The Board of Regents of the University of Texas System, priority 2016, published 2021).)
